# Experimental data published in patent US7268152B2, “Glucocorticoid mimetics, methods of making them, pharmaceutical compositions, and uses thereof” (Boehringer Ingelheim Pharmaceuticals, Inc., priority 2002, dated 2007).
# Molecular target: T1, human glucocorticoid receptor (GR) complex (Homo sapiens, UniProt P04150)
# T1 construct: made in house; host or cells: insect expression system (baculovirus lysate)
# T1 sequence (P04150 1-777): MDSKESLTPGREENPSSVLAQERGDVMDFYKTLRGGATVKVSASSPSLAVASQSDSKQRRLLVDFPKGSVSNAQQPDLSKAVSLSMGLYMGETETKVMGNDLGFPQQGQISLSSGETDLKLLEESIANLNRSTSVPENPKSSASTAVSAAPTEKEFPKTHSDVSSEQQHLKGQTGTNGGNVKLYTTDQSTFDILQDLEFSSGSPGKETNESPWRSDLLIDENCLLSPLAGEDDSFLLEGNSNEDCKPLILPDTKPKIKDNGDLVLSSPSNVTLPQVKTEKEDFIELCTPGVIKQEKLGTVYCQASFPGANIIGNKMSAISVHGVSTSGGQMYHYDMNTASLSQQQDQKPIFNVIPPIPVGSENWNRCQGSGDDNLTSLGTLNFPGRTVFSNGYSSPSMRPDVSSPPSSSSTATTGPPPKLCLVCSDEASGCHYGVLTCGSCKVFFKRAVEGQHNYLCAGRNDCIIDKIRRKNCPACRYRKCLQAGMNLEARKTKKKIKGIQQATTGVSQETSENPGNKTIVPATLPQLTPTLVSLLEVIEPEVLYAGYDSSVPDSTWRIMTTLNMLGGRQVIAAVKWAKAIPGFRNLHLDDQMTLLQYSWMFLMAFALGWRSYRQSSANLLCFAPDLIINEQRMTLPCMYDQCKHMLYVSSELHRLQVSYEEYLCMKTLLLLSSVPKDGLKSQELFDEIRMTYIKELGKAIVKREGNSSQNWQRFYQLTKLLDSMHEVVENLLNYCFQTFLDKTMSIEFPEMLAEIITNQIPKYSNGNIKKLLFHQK
# Assay: Glucocorticoid receptor competitive binding assay (fluorescence polarization)
# Conditions: competition with TAMRA-labeled dexamethasone
# Description: Compounds of the invention were evaluated for binding to the steroid receptor by a fluorescence polarization competitive binding assay. Detailed descriptions for preparation of recombinant glucocorticoid receptor (GR) complex used in the assay is described in U.S. provisional application No. 60/291,877, filed May 18, 2001, and incorporated herein by reference in its entirety. Preparation of the tetramethyl rhodamine (TAMRA)-labeled dexamethasone probe was accomplished using a standard literature procedure (M. Pons et al., J. Steroid Biochem., 1985, 22, pp. 267-273).
# A. Glucocorticoid Receptor Competitive Binding Assay
# Step 1. Characterization of the Fluorescent Probe
# The wavelengths for maximum excitation and emission of the fluorescent probe should first be measured. An example of such a probe is rhodamine (TAMRA)-labeled dexamethasone.
# The affinity of the probe for the steroid receptor was then determined in a titration experiment. The fluorescence polarization value of the probe in assay buffer was measured on an SLM-8100 fluorometer using the excitation and emission maximum values described above. Aliquots of expression vector lysate were added and fluorescence polarization was measured after each addition until no further change in polarization value was observed. Non-linear least squares regression analysis was used to calculate the dissociation constant of the probe from the polarization values obtained for lysate binding to the probe.
# Step 2. Screeningfor Inhibitors of Probe Binding
# (§1) This assay uses fluorescence polarization (FP) to quantitate the ability of test compounds to compete with tetramethyl rhodamine (TAMRA)-labeled dexamethasone for binding to a human glucocorticoid receptor (GR) complex prepared from an insect expression system. The assay buffer was: 10 mM TES, 50 mM KCl, 20 mM Na2MoO4.2H2O, 1.5 mM EDTA, 0.04% w/v CHAPS, 10% v/v glycerol, 1 mM dithiothreitol, pH 7.4. Test compounds were dissolved to 1 mM in neat DMSO and then further diluted to 10×assay concentration in assay buffer supplemented with 10% v/v DMSO. Test compounds were serially diluted at 10×assay concentrations in 10% DMSO-containing buffer in 96-well polypropylene plates. Binding reaction mixtures were prepared in 96-well black Dynex microtiter plates by sequential addition of the following assay components to each well: 15 μL of 10×test compound solution, 85 μL of GR-containing baculovirus lysate diluted 1:170 in assay buffer, and 50 μL of 15 nM TAMRA-labeled dexamethasone. Positive controls were reaction mixtures containing no test compound; negative controls (blanks) were reaction mixtures containing 0.7 μM to 2 μM dexamethasone. The binding reactions were incubated for 1 hour at room temperature and then read for fluorescence polarization in the LJL Analyst set to 550 nm excitation and 580 nm emission, with the Rhodamine 561 dichroic mirror installed. IC50 values were determined by iterative non-linear curve fitting of the FP signal data to a 4-parameter logistic equation.
row,SMILES,IC50
1,"COc1ccc(F)cc1C(C)(C)CC(O)(C(O)c1cc(C)cc(C)c1)C(F)(F)F (stereo not shown) [1-(3,5-Dimethylphenyl)-4-(5-fluoro-2-methoxyphenyl)-4-methyl-2-trifluoromethylpentane-1,2-diol]",≤ 0.1 µM
2,"CC(C)(CC(O)(Cc1ccc(Cl)c(Cl)c1)C(F)(F)F)c1cc(F)ccc1O (stereo not shown) [2-[3-(3,4-Dichlorobenzyl)-4,4,4-trifluoro-3-hydroxy-1,1-dimethylbutyl]-4-fluorophenol]",≤ 0.1 µM
3,COc1ccc(F)cc1C(C)(C)CC(O)(Cc1cccc(C#N)c1)C(F)(F)F (stereo not shown) [3-[4-(5-Fluoro-2-methoxyphenyl)-2-hydroxy-4-methyl-2-trifluoromethylpentyl]benzonitrile],≤ 0.1 µM

# System: glucocorticoid receptor
# Assay: One or more of the above assays (GR binding and GR cell assays; not specified which)
# Assay type: cell-based
# Conditions: in one or more of the above assays
# Description: as §1, with “Binding reaction mixtures were prepared in 96-well black Dynex microtiter plates by sequential addition of the following assay components to each well: 15 μL of 10×test compound solution, 85 μL of GR-containing baculovirus lysate diluted 1:170 in assay buffer, and 50 μL of 15 nM TAMRA-labeled dexamethasone.” left out, “The binding reactions were incubated for 1 hour at room temperature and then read for fluorescence polarization in the LJL Analyst set to 550 nm excitation and 580 nm emission, with the Rhodamine 561 dichroic mirror installed.” left out
# B. Glucocorticoid Receptor Cell Assays
# 1. Induction of Aromatase in Fibroblasts (Cell Assay for Transactivation)
# Dexamethasone, a synthetic ligand to the glucocorticoid receptor (GR), induces expression of aromatase in human foreskin fibroblast cells. The activity of aromatase is measured by the conversion of testosterone to estradiol in culture media.
# On the day of the experiment, the media in the wells is replaced with fresh media. Cells are treated with test compounds to final concentrations of 10^−5 M to 10 ^−8 M, and testosterone to a final concentration of 300 ng/mL. Each well has a total volume of 100 μL. Samples are made in duplicates. Control wells include: (a) wells that receive testosterone only, and (b) wells that receive testosterone plus 2 μM of dexamethasone to provide maximum induction of aromatase. Plates are incubated at 37° C. overnight (15 to 18 hours), and supernatants are harvested at the end of incubation. […] The amount of estradiol is inversely proportional to the ELISA signals in each well. The extent of aromatase induction by test compounds is expressed as a relative percentage to dexamethasone. EC50 values of test compounds are derived by non-linear curve fitting.
# 2. Inhibition of IL-6 Production in Fibroblasts (Cell Assay for Transrepression)
# Human foreskin fibroblast cells produce IL-6 in response to stimulation by pro-inflammatory cytokine IL-1.
# On the next day, media in the wells is replaced with fresh media. Cells are treated with IL-1 (rhIL-1α, R&D Systems Cat. No. 200-LA) to a final concentration of 1 ng/mL, and with test compounds to final concentrations of 10 ^−5 M to 10 ^−8 M, in a total volume of 200 μL per well. Samples are done in duplicates. […] Positive control wells receive IL-1 only and represent maximum (or 100%) amount of IL-6 production. Plates are incubated at 37° C. overnight (15 to 18 hours), and supernatants are harvested at the end of incubation. IL-6 levels in the supernatants are determined by the ELISA kits for IL-6 (MedSystems Diagnostics GmbH, Vienna, Austria, Cat. No. BMS213TEN) according to manufacture's instructions. The extent of inhibition of IL-6 by test compounds is expressed in percentage relative to positive controls. IC50 values of test compounds are derived by non-linear curve fitting.
# Evaluation of agonist or antagonist activity of compounds binding to the glucocorticoid receptor may be determined by any of the assays.
# 3. Modulation of Tyrosine Aminotransferase (TAT) Induction in Rat Hepatoma Cells
# Testing of compounds for agonist or antagonist activity in induction of tyrosine aminotransferase (TAT) in rat hepatoma cells.
# H4-II-E-C3 cells were incubated overnight in 96 well plates (20,000 cells/100 μL/well) in MEM medium containing 10% heat inactivated FBS and 1% nonessential amino acids. On the next day, cells were stimulated with the indicated concentrations of dexamethasone or test compound (dissolved in DMSO, final DMSO concentration 0.2%) for 18 hours. Control cells were treated with 0.2% DMSO.
row,SMILES,activity as agonists of the glucocorticoid receptor function
1,"Cc1cc(CC(O)(CC(C)(C)c2cc(F)ccc2O)C(F)(F)F)cc(C)c1C#N (stereo not shown) [4-[4-(5-Fluoro-2-hydroxyphenyl)-2-hydroxy-4-methyl-2-trifluoromethylpentyl]-2,6-dimethylbenzonitrile]",activity as agonists
2,CC(C)(CC(O)(Cc1ccc(C#N)cc1Cl)C(F)(F)F)c1ccccc1 (stereo not shown) [3-Chloro-4-(2-hydroxy-4-methyl-4-phenyl-2-trifluoromethylpentyl)benzonitrile],activity as agonists
3,"CC(C)(CC(O)(Cc1ccc(C#N)cc1Cl)C1CC1)c1cccc2c1OCC2 (stereo not shown) [3-Chloro-4-[2-cyclopropyl-4-(2,3-dihydrobenzofuran-7-yl)-2-hydroxy-4-methylpentyl]benzonitrile]",activity as agonists
4,CC(C)(CC(O)(Cc1ccc(C#N)cc1Cl)C(F)(F)F)c1ccc(F)cc1 (stereo not shown) [3-Chloro-4-[4-(4-fluorophenyl)-2-hydroxy-4-methyl-2-trifluoromethylpentyl]benzonitrile],activity as agonists
5,COc1cc(F)c(Br)cc1C(C)(C)CC(O)(Cc1ccc(C#N)cc1Cl)C(F)(F)F (stereo not shown) [4-[4-(5-Bromo-4-fluoro-2-methoxyphenyl)-2-hydroxy-4-methyl-2-trifluoromethylpentyl]-3-chlorobenzonitrile],activity as agonists
6,CC(C)(CC(O)(Cc1ccc(C#N)cc1Cl)C(F)(F)F)c1cccc(C(F)(F)F)c1 (stereo not shown) [3-Chloro-4-[2-hydroxy-4-methyl-2-trifluoromethyl-4-(3-trifluoromethylphenyl)pentyl]benzonitrile],activity as agonists
7,"Cc1cc(Br)cc(CC(O)(CC(C)(C)c2cc(F)ccc2O)C(F)(F)F)c1F (stereo not shown) [2-[3-(5-Bromo-2-fluoro-3-methylbenzyl)-4,4,4-trifluoro-3-hydroxy-1,1-dimethylbutyl]-4-fluorophenol]",activity as agonists
8,COc1cccc(C(C)(C)CC(O)(Cc2ccc(C#N)cc2Cl)C(F)(F)F)c1 (stereo not shown) [3-Chloro-4-[2-hydroxy-4-(3-methoxyphenyl)-4-methyl-2-trifluoromethylpentyl]benzonitrile],activity as agonists
9,CC(C)(CC(O)(Cc1ccc(C#N)cc1Cl)C(F)(F)F)c1ccc2ccccc2c1 (stereo not shown) [3-Chloro-4-(2-hydroxy-4-methyl-4-naphthalen-2-yl-2-trifluoromethylpentyl)benzonitrile],activity as agonists
10,CC(C)(CC(O)(Cc1ccc(C#N)cc1Cl)C(F)(F)F)c1ccccc1C(F)(F)F (stereo not shown) [3-Chloro-4-[2-hydroxy-4-methyl-2-trifluoromethyl-4-(2-trifluoromethylphenyl)pentyl]benzonitrile],activity as agonists
11,"CC(C)(CC(O)(Cc1ccc(C#N)cc1Cl)C(F)(F)F)c1ccc2c(c1)CCO2 (stereo not shown) [3-Chloro-4-[4-(2,3-dihydrobenzofuran-5-yl)-2-hydroxy-4-methyl-2-trifluoromethylpentyl]benzonitrile]",activity as agonists
12,"COc1ccc(F)cc1C(C)(C)CC(O)(Cc1ccc(Cl)cc1)C(F)(F)F (stereo not shown) [2-(4-Chlorobenzyl)-1,1,1-trifluoro-4-(5-fluoro-2-methoxyphenyl)-4-methylpentan-2-ol]",activity as agonists
13,"CC(C)(CC(O)(Cc1ccc(C#N)cc1Cl)C(F)(F)F)c1cc(O)cc(O)c1 (stereo not shown) [3-Chloro-4-[4-(3,5-dihydroxyphenyl)-2-hydroxy-4-methyl-2-trifluoromethylpentyl]benzonitrile]",activity as agonists
